Test results reported in patent US8546608B2, “Proteasome inhibitors and methods of using the same” (Cephalon, Inc., priority 2003, dated 2013).
Counter-ions that a name gives are not always drawn. Like-named read-outs stand apart in the source and are kept apart here.

How the values were obtained:
[1] = target: T1, proteasome in Molt-4 cells (human leukemia) (Homo sapiens, UniProt P20618+P28074); format: cell-based
T1 sequence (P28074 60-263): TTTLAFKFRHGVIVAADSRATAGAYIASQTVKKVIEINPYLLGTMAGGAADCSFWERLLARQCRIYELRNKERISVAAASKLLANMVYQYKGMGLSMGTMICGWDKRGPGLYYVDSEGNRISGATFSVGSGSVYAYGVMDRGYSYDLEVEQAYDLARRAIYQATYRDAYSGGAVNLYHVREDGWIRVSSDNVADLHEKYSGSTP
T1 sequence (P20618 29-241): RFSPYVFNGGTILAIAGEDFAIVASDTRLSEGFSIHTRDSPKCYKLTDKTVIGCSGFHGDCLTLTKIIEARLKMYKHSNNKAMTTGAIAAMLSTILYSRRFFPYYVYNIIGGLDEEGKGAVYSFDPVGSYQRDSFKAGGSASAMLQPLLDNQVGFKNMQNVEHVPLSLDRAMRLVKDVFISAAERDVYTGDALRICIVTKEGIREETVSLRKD
How it was run: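 Intact Molt-4 cells (6×10^6 cells/mL) in HEPES-buffered saline were preincubated with inhibitor 15 min at 37 °C, then given cell-permeable MeOSuc-FLF-AFC at 25 μM final.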

[2] = target: T2, 20S Human Erythrocyte Proteasome (HEP) (Homo sapiens, UniProt P20618+P28074); assay: Chymotrypsin-like activity of 20S Human Erythrocyte Proteasome (HEP), IC50 determination; format: biochemical; settings: assay of Example C, inhibition of HEP
T2 construct: 20S Human Erythrocyte Proteasome (HEP), purchased from Immatics Biotechnologies Inc; purchased Immatics Biotechnologies Inc., Tübingen, Germany; host or cells: human erythrocytes (natural source)
How it was run: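 20S proteasome at 0.2 μg/mL (about 0.6 nM catalytic sites) in 20 mM Tris with 0.04% SDS, preincubated 15 min at 37° C with inhibitor before Suc-LLVY-AMC (100 μM final). AMC fluorescence read in the linear range; triplicates, IC50 from concentration series.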

[3] = assay of Example E, inhibition of MOLT4; read-out: MOLT4 (EC50)

For `CCCCCCCCCC(=O)N[C@@H](CC(N)=O)C(=O)N[C@@H](CC(C)C)B1O[C@@H]2C[C@@H]3C[C@@H](C3(C)C)[C@]2(C)O1` [D.8.19, Decanamide, N-[(1S)-1-[[[(1R)-1-[(3aS,4S,6S,7aR)-hexahydro-3a,5,5-trimethyl-4,6-methano-1,3,2-benzodioxaborol-2-yl]-3-methylbutyl]amino]carbonyl]-2-carbamoylethyl]], the EC50 [1, 3] was less than 200 nM and the IC50 [2] was less than 10 nM.

`CCCCc1ccc(C(=O)N[C@@H](CC(N)=O)C(=O)N[C@@H](CC(C)C)B2O[C@@H]3C[C@@H]4C[C@@H](C4(C)C)[C@]3(C)O2)cc1` [D.8.20, 4-Butylbenzamide, N-[(1S)-1-[[[(1R)-1-[(3aS,4S,6S,7aR)-hexahydro-3a,5,5-trimethyl-4,6-methano-1,3,2-benzodioxaborol-2-yl]-3-methylbutyl]amino]carbonyl]-2-carbamoylethyl]] was tested, and the EC50 [1, 3] was less than 200 nM and the IC50 [2] was less than 10 nM.

`CCCCCCCCCC(=O)N[C@@H](CNC(=O)c1ccc(C)cc1)C(=O)N[C@@H](CC(C)C)B1O[C@@H]2C[C@@H]3C[C@@H](C3(C)C)[C@]2(C)O1` [D.9, Decanamide, N-[(1S)-1-[[[(1R)-1-[(3aS,4S,6S,7aR)-hexahydro-3a,5,5-trimethyl-4,6-methano-1,3,2-benzodioxaborol-2-yl]-3-methylbutyl]amino]carbonyl]-2-[(4-methylbenzoyl)amino]ethyl]-] was tested, and the EC50 [1, 3] was less than 200 nM and the IC50 [2] was less than 10 nM.

`CCCCCCCCCC(=O)N[C@@H](CNC(=O)Cc1ccc(OC)c(OC)c1)C(=O)N[C@@H](CC(C)C)B1O[C@@H]2C[C@@H]3C[C@@H](C3(C)C)[C@]2(C)O1` [D.12, 2-S-Decanoylamino-3-(3,4-dimethoxyphenylacetamido)propionamide, N-[(1S)-1-[[(1R)-1-[(3aS,4S,6S,7aR)-hexahydro-3a,5,5-trimethyl-4,6-methano-1,3,2-benzodioxaborol-2-yl]-3-methylbutyl]amino]carbonyl]] gave an EC50 [1, 3] of less than 200 nM and an IC50 [2] of less than 10 nM.

In the case of `CCCCc1ccc(C(=O)N[C@@H](CNC(=O)c2cnccn2)C(=O)N[C@@H](CC(C)C)B2O[C@@H]3C[C@@H]4C[C@@H](C4(C)C)[C@]3(C)O2)cc1` [D.18, 2-S-(4-Butylbenzoylamino)-3-(2-pyrazinocarbonylamino)-N-[(1S)-1-[[(1R)-1-[(3aS,4S,6S,7aR)-hexahydro-3a,5,5-trimethyl-4,6-methano-1,3,2-benzodioxaborol-2-yl]-3-methylbutyl]amino]carbonyl]], the EC50 [1, 3] is reported as less than 200 nM and the IC50 [2] is reported as less than 10 nM.

In the case of `CCCCc1ccc(C(=O)N[C@@H](CNS(=O)(=O)c2ccc(F)cc2)C(=O)N[C@@H](CC(C)C)B2O[C@@H]3C[C@@H]4C[C@@H](C4(C)C)[C@]3(C)O2)cc1` [D.19, 4-Butylbenzamide, N-[(1S)-1-[[[(1R)-1-[(3aS,4S,6S,7aR)-hexahydro-3a,5,5-trimethyl-4,6-methano-1,3,2-benzodioxaborol-2-yl]-3-methylbutyl]amino]carbonyl]-2-[4-fluoro-benzenesulfonammide]ethyl]-], the EC50 [1, 3] is reported as less than 200 nM and the IC50 [2] is reported as less than 10 nM.

In the case of `CCCCc1ccc(C(=O)N[C@@H](CNC(=O)c2cccs2)C(=O)N[C@@H](CC(C)C)B2O[C@@H]3C[C@@H]4C[C@@H](C4(C)C)[C@]3(C)O2)cc1` [D.24.8, 4-butylbenzamide, N-[(1S)-1-[[[(1R)-1-[(3aS,4S,6S,7aR)-hexahydro-3a,5,5-trimethyl-4,6-methano-1,3,2-benzodioxaborol-2-yl]-3-methylbulyl]amino]carbonyl]-2-[(thien-2-ylcarbonyl)amino]ethyl]-], the EC50 [1, 3] is reported as less than 200 nM and the IC50 [2] is reported as less than 10 nM.

Compound `CCCCCC(=O)NC[C@H](NC(=O)c1ccc(CCCC)cc1)C(=O)N[C@@H](CC(C)C)B1O[C@@H]2C[C@@H]3C[C@@H](C3(C)C)[C@]2(C)O1` [D.24.10, 4-butylbenzamide, N-[(1S)-1-[[[(1R)-1-[(3aS,4S,6S,7aR)-hexahydro-3a,5,5-trimethyl-4,6-methano-1,3,2-benzodioxaborol-2-yl]-3-methylbutyl]amino]carbonyl]-2-(hexanonylamino)ethyl]-] has an EC50 [1, 3] of less than 200 nM and an IC50 [2] of less than 10 nM.

Compound `CCCCc1ccc(C(=O)N[C@@H](CNC(=O)C2CC2)C(=O)N[C@@H](CC(C)C)B2O[C@@H]3C[C@@H]4C[C@@H](C4(C)C)[C@]3(C)O2)cc1` [D.24.11] has an EC50 [1, 3] of less than 200 nM and an IC50 [2] of less than 10 nM.

For `CCCCc1ccc(C(=O)N[C@@H](CNC(=O)Nc2ccccc2)C(=O)N[C@@H](CC(C)C)B2O[C@@H]3C[C@@H]4C[C@@H](C4(C)C)[C@]3(C)O2)cc1` [D.24.12, 4-Butylbenzamide, N-[(1S)-1-[[[(1R)-1-[(3aS,4S,6S,7aR)-hexahydro-3a,5,5-trimethyl-4,6-methano-1,3,2-benzodioxaborol-2-yl]-3-methylbutyl]amino]carbonyl]-2-(3-phenyl-ureido)ethyl]-], the EC50 [1, 3] was less than 200 nM and the IC50 [2] was less than 10 nM.

In the case of `CCCCc1ccc(C(=O)N[C@@H](CNC(=O)Cc2ccc(OC)c(OC)c2)C(=O)N[C@@H](CC(C)C)B2O[C@@H]3C[C@@H]4C[C@@H](C4(C)C)[C@]3(C)O2)cc1` [D.24.14], the EC50 [1, 3] is reported as less than 200 nM and the IC50 [2] is reported as less than 10 nM.

Work on `CCCCc1ccc(C(=O)N[C@@H](CNC(=O)c2cccnc2)C(=O)N[C@@H](CC(C)C)B2O[C@@H]3C[C@@H]4C[C@@H](C4(C)C)[C@]3(C)O2)cc1` [D.24.15, 4-butylbenzamide, N-[(1S)-1-[[[(1R)-1-[(3aS,4S,6S,7aR)-hexahydro-3a,5,5-trimethyl-4,6-methano-1,3,2-benzodioxaborol-2-yl]-3-methylbutyl]amino]carbonyl]-2-(nicotinonylamino)ethyl]-] yielded an EC50 [1, 3] of less than 200 nM and an IC50 [2] of less than 10 nM.

`CCOC(=O)/C=C/C(=O)N[C@@H](CCCNC(=N)N[N+](=O)[O-])C(=O)N[C@@H](CC(C)C)B(O)O` [E.1.1, Boronic acid, [(1R)-1-[[(2S)-5-[[imino(nitroamino)methyl]amino]-2-[((2E)-3-ethoxycarbonyl-1-oxoprop-2-enyl)amino]-1-oxopentyl]amino]-3-methylbutyl]] gave an EC50 [1, 3] greater than 10000 nM and an IC50 [2] of less than 10 nM.

Work on `CC(C)C[C@H](NC(=O)[C@H](CCCNC(=N)N[N+](=O)[O-])NC(=O)c1cnccn1)B(O)O` [E.1.2, Boronic acid, [(1R)-1-[[(2S)-5-[[imino(nitroamino)methyl]amino]-2-[(2-pyrazine-carbonyl)amino]-1-oxopentyl]amino]-3-methylbutyl]] yielded an EC50 [1, 3] of 2000 to 10000 nM and an IC50 [2] of less than 10 nM.

In the case of `CCCCc1ccc(C(=O)N[C@@H](CCCNC(=N)N[N+](=O)[O-])C(=O)N[C@@H](CC(C)C)B(O)O)cc1` [E.1.3, Boronic acid, [(1R)-1-[[(2S)-5-[[imino(nitroamino)methyl]amino]-2-[(4-butyl-benzoyl)amino]-1-oxopentyl]amino]-3-methylbutyl]], the EC50 [1, 3] is reported as 200 to 2000 nM and the IC50 [2] is reported as less than 10 nM.

Work on `CC(C)C[C@H](NC(=O)[C@H](CCCNC(=N)N[N+](=O)[O-])NC(=O)c1ccc2ccccc2c1)B(O)O` [E.1.4, Boronic acid, [(1R)-1-[[(2S)-5-[[imino(nitroamino)methyl]amino]-2-[(2-naphthoyl)amino]-1-oxopentyl]amino]-3-methylbutyl]] yielded an EC50 [1, 3] of 200 to 2000 nM and an IC50 [2] of less than 10 nM.

`CC(C)C[C@H](NC(=O)[C@H](CCCNC(=N)N[N+](=O)[O-])NC(=O)CCN1C(=O)c2ccccc2C1=O)B(O)O` [E.1.5] gave an EC50 [1, 3] greater than 10000 nM and an IC50 [2] of less than 10 nM.

Compound `COCCOCC(=O)N[C@@H](CCCNC(=N)N[N+](=O)[O-])C(=O)N[C@@H](CC(C)C)B(O)O` [E.1.6, Boronic acid, [(1R)-1-[[(2S)-5-[[imino(nitroamino)methyl]amino]-2-[[2-(2-methoxyethoxy)acetyl]amino]-1-oxopentyl]amino]-3-methylbutyl], HCl salt] has an EC50 ([1]; read-out: MOLT4 (EC50); assay of Example E, inhibition of MOLT4) of 2000 to 10000 nM and an IC50 [2] of less than 100 nM.

In the case of `CCCCOCC(=O)N[C@@H](CCCNC(=N)N[N+](=O)[O-])C(=O)N[C@@H](CC(C)C)B(O)O` [E.1.7, Boronic acid, [(1R)-1-[[(2S)-5-[[imino (nitroamino)methyl]amino]-2-[(2-butoxyacetyl)amino]-1-oxopentyl]amino]-3-methylbutyl]], the EC50 [1, 3] is reported as 2000 to 10000 nM and the IC50 [2] is reported as less than 10 nM.

Work on `COCCOCCOCC(=O)N[C@@H](CCCNC(=N)N[N+](=O)[O-])C(=O)N[C@@H](CC(C)C)B(O)O` [E.1.8, Boronic acid, [(1R)-1-[[(2S)-5-[[imino(nitroamino)methyl]amino]-2-[[2-[2-(2-methoxyethoxy)ethoxy]acetyl]amino]-1-oxopentyl]amino]-3-methylbutyl]] yielded an EC50 [1, 3] greater than 10000 nM and an IC50 [2] of less than 10 nM.

Work on `CC(C)C[C@H](NC(=O)[C@H](CCCNC(=N)N[N+](=O)[O-])NC(=O)COc1ccc2ccccc2c1)B(O)O` [E.1.11, Boronic acid, [(1R)-1-[[(2S)-5-[[imino(nitroamino)methyl]amino]-2-[(2-(naphthalen-2-yloxy)acetyl]amino]-1-oxopentyl]amino]-3-methylbutyl]] yielded an EC50 [1, 3] of 200 to 2000 nM and an IC50 [2] of less than 10 nM.

`CC(C)C[C@H](NC(=O)[C@H](CCCNC(=N)N[N+](=O)[O-])NC(=O)CCc1cccs1)B(O)O` [E.1.12, Boronic acid, [(1R)-1-[[(2S)-5-[[imino(nitroamino)methyl]amino]-2-[(3-thiophen-2-yl-propanoyl)amino]-1-oxopentyl]amino]-3-methylbutyl]] was tested, and the EC50 [1, 3] was greater than 10000 nM and the IC50 [2] was less than 10 nM.
